These results are taken from patent US4759928A, “Antibiotic: Treponemycin” (Washington State University Research Foundation, priority 1986, dated 1988).

For experiment [1], the system named is dopamine β-hydroxylase. The settings on record: cited from earlier work.
For experiment [2] the following is noted: cited from earlier work.
In experiment [3] the test system is Bacillus subtilis and Saccharomyces cerevisiae. In words: antimicrobial activity, paper disk agar diffusion bioassay. It is filed as cell-based.
In experiment [4] the test system is Streptomyces sp. isolates 275 and 124. The experiment is described as follows: Streptomycin susceptibility. It is filed as cell-based, Streptomyces albovinaceous. The source says: Streptomyces sp. isolates 124 and 275 were characterized by the methods developed by collaborators of the International Streptomyces Project for the identification of Streptomyces species (1, 7, 8, 10-14). Identification was made by using Nonomura's classification key (7) and Bergey's Manual of Determinative Bacteriology (1). The color of mature aerial mycelia was observed on OMA, potato dextrose agar, and Pridham and Gottlieb's basal agar with glucose (8). The colony color on the reverse side of the plate was observed on potato dextrose agar, OMA, and tyrosine-casein-nitrate agar. Color standards and color nomenclature were used to describe the colony color. The production of melanoid pigments was examined on peptone-iron agar, tyrosine agar, and tryptone-yeast extract broth. Carbon utilization by the organism was studied on Pridham and Gottlieb's basal agar with various carbon sources added (8).

The subject of experiment [5] is Fusobacterium necrophorum. The settings on record: cited from earlier work.

As for `[C-]#[N+]C(C(=O)OCC(O)C(O)C(O)C(O)COC(=O)C([N+]#[C-])=C(C)C)=C(C)C` (stereo not drawn) [A32390A], in experiment [1], the “inhibitor of dopamine β-hydroxylase” value was “inhibitor”. Also, the antimicrobial result in experiment [2] is recorded as “antimicrobial compound”.

With `C[C@@H]1C[C@H](C)C[C@H](C)[C@@H](O)CC(=O)O[C@H]([C@@H]2CCC[C@H]2C(=O)O)C/C=C/C=C(/CN)[C@H](O)[C@@H](C)C1` [primary amine], the antimicrobial activity result in experiment [3] is “no antimicrobial activity”.

With `[H]/N=C(/N)N[C@H]1[C@H](O)[C@@H](O)[C@H](O[C@@H]2O[C@@H](C)[C@](O)(C=O)[C@H]2O[C@@H]2O[C@@H](CO)[C@H](O)[C@@H](O)[C@@H]2NC)[C@@H](N/C(N)=N\[H])[C@@H]1O` [Streptomycin], the figures for the Streptomycin susceptibility result in experiment [4] (10 μg/ml) and in experiment [4] (50 μg/ml) were “not” and “Inhibited”, respectively.

Turning to `CC[C@H]1OC(=O)[C@H](C)[C@@H](O[C@H]2C[C@@](C)(OC)[C@@H](O)[C@H](C)O2)[C@H](C)[C@@H](O[C@@H]2O[C@H](C)C[C@H](N(C)C)[C@H]2O)[C@](C)(O)C[C@@H](C)C(=O)[C@H](C)[C@@H](O)[C@]1(C)O` [erythromycin], the “resistance of Fusobacterium necrophorum” value in experiment [5] is “high levels of resistance”.
